Experimental data taken from patent US7420051B2, “Synthetic process for the manufacture of an ecteinaschidin compound” (Pharma Mar, S.A., priority 2000, dated 2008).

Key:
Assay type in all cases: cell-based
[1] = test system: P-388 (suspension culture of a lymphoid neoplasm from DBA/2 mouse); test: Cytotoxic activity screening, P-388 cells; settings: Mus musculus, P388, 72 h, three days of incubation, approximate IC50
Description: (§1) Cell Cultures. Cells were maintained in logarithmic phase of growth in Eagle's Minimum Essential Medium, with Earle's Balanced Salts, with 2.0 mM L-glutamine, with non-essential amino acids, without sodium bicarbonate (EMEM/neaa); supplemented with 10% Fetal Calf Serum (FCS), 10^−2 M sodium bicarbonate and 0.1 g/l penicillin-G+streptomycin sulfate.
(§2) A simple screening procedure has been carried out to determine and compare the antitumour activity of these compounds, using an adapted form of the method described by Bergeron et al (1984). The tumour cell line employed have been P-388 (suspension culture of a lymphoid neoplasm from DBA/2 mouse), A-549 (monolayer culture of a human lung carcinoma), HT-29 (monolayer culture of a human colon carcinoma) and MEL-28 (monolayer culture of a human melanoma).
P-388 cell were seeded into 16 mm wells at 1×10^4 cells per well in 1 ml aliquots of MEM 5FCS containing the indicated concentration of drug. A separate set of cultures without drug was seeded as control growth to ensure that cells remained in exponential phase of growth. All determinations were carried out in duplicate.

[2] = test system: A-549 (monolayer culture of a human lung carcinoma); test: Cytotoxic activity screening, A-549 cells; settings: Homo sapiens, A549, 72 h, three days of incubation, Crystal Violet, approximate IC50
Description: as §1, §2
(§3) A-549, HT-29 and MEL-28 were seeded into 16 mm wells at 2×10^4 cells per well in 1 ml aliquots of MEM 10FCS containing the indicated concentration of drug. A separate set of cultures without drug was seeded as control growth to ensure that cells remained in exponential phase of growth. All determinations were carried out in duplicate. After three days of incubation at 37° C., 10% CO2 in a 98% humid atmosphere, the wells were stained with 0.1% Crystal Violet. An approximately IC50 was determined by comparing the growth in wells with drug to the growth in wells control.

[3] = test system: HT-29 (monolayer culture of a human colon carcinoma); test: Cytotoxic activity screening, HT-29 cells; settings: Homo sapiens, HT-29, 72 h, three days of incubation, Crystal Violet, approximate IC50
Description: as §1, §2, §3

[4] = test system: MEL-28 (monolayer culture of a human melanoma); test: Cytotoxic activity screening, MEL-28 cells; settings: SK-MEL-28, 72 h, three days of incubation, Crystal Violet, approximate IC50
Description: as §1, §2, §3

DU-145 = test: Cytotoxic activity screening, DU-145 cells; settings: Homo sapiens, DU-145, DU-145 cells

Row | SMILES | IC50 [1] [µM] | IC50 [2] [µM] | IC50 [3] [µM] | IC50 [4] [µM] | IC50 (DU-145) [µM]
1 | COC1=C(C)C(=O)C2=C(C1=O)[C@H](CNC(=O)[C@H](C)NC(=O)OC(C)(C)C)N1C(C2)[C@H]2c3c(cc(C)c(OC)c3O)C[C@@H]([C@@H]1C#N)N2C (some centres unmarked) | 0.15 | > 0.15 | 0.15 | > 0.15 | –
2 | COCOc1c(OC)c(C)cc2c1[C@@H]1C3CC4=C(C(=O)C(OC)=C(C)C4=O)[C@H](CNC(=O)[C@H](C)NC(=O)OC(C)(C)C)N3[C@@H](C#N)[C@H](C2)N1C (some centres unmarked) | 1.44 | 1.44 | 1.44 | 1.44 | –
3 | COCOc1c(OC)c(C)cc2c1[C@@H]1C3CC4=C(C(=O)C(O)=C(C)C4=O)[C@H](CNC(=O)[C@H](C)NC(=O)OC(C)(C)C)N3[C@@H](C#N)[C@H](C2)N1C (some centres unmarked) | > 1.5 | > 1.5 | > 1.5 | > 1.5 | –
4 | COCOc1c(OC)c(C)cc2c1[C@@H]1C3Cc4c(O)c(C)c5c(c4[C@H](CNC(=O)[C@H](C)NC(=O)OC(C)(C)C)N3[C@@H](C#N)[C@H](C2)N1C)OCO5 (some centres unmarked) | 1.4 | 1.4 | 1.4 | 1.4 | –
5 | C=CCOc1c(C)c2c(c3c1CC1[C@H]4c5c(cc(C)c(OC)c5OCOC)C[C@@H]([C@H](C#N)N1[C@H]3CNC(=O)[C@H](C)NC(=O)OC(C)(C)C)N4C)OCO2 (some centres unmarked) | 0.01 | 0.01 | 0.01 | 0.01 | –
6 | C=CCOc1c(C)c2c(c3c1CC1[C@H]4c5c(cc(C)c(OC)c5O)C[C@@H]([C@H](C#N)N1[C@H]3CNC(=O)[C@H](C)N)N4C)OCO2 (some centres unmarked) | 0.08 | 0.16 | 0.01 | 0.16 | –
7 | C=CCOc1c(C)c2c(c3c1CC1[C@H]4c5c(cc(C)c(OC)c5O)C[C@@H]([C@H](C#N)N1[C@H]3CNC(=O)[C@H](C)NC(=S)Nc1ccccc1)N4C)OCO2 (some centres unmarked) | 0.01 | 0.01 | 0.01 | 0.01 | –
8 | C=CCOc1c(C)c2c(c3c1CC1[C@H]4c5c(cc(C)c(OC)c5O)C[C@@H]([C@H](C#N)N1[C@H]3CN)N4C)OCO2 (some centres unmarked) | 0.019 | 0.019 | 0.019 | 0.019 | –
9 | COc1c(C)cc2c(c1O)[C@@H]1C3[C@@H]4SCC(N)C(=O)OC[C@@H](c5c6c(c(C)c(OC(C)=O)c54)OCO6)N3[C@@H](C#N)[C@H](C2)N1C (some centres unmarked) | 0.008 | 0.008 | 0.008 | 0.008 | –
10 | COc1c(C)cc2c(c1O)[C@@H]1C3[C@@H]4SCC(=O)C(=O)OC[C@@H](c5c6c(c(C)c(OC(C)=O)c54)OCO6)N3[C@@H](C#N)[C@H](C2)N1C (some centres unmarked) | 0.01 | 0.01 | 0.01 | 0.01 | –
11 | COC1=C(C)C(=O)C2=C(C1=O)C(CNC(C)=O)N1C(C2)[C@H]2c3c(cc(C)c(OC)c3O)C[C@@H]([C@@H]1C#N)N2C (some centres unmarked) | 0.005 | 0.005 | 0.005 | 0.005 | –
12 | COc1c(C)cc2c(c1O)[C@@H]1C3Cc4c(OC(C)=O)c(C)c5c(c4[C@H](CNC(=O)CC(C)C)N3[C@@H](C#N)[C@H](C2)N1C)OCO5 (some centres unmarked) | 0.0008 | 0.001 | – | 0.0008 | 0.001
13 | COc1c(C)cc2c(c1O)[C@@H]1C3Cc4c(OC(C)=O)c(C)c5c(c4[C@H](CNC(=O)/C=C/c4cccc(C(F)(F)F)c4)N3[C@@H](C#N)[C@H](C2)N1C)OCO5 (some centres unmarked) | 0.0001 | 0.0001 | – | 0.0001 | –
14 | C=CCOc1c(C)c2c(c3c1CC1[C@H]4c5c(cc(C)c(OC)c5OCOC)C[C@@H]([C@H](C#N)N1[C@H]3COC(CSCC1c3ccccc3-c3ccccc31)NC(=O)OC(C)(C)C)N4C)OCO2 (some centres unmarked) | – | > 1 | > 1 | – | –
15 | COCOc1c(OC)c(C)cc2c1[C@@H]1C3CC4(O)C(=O)C(C)=C5OCOC5=C4[C@H](COC(CSCC4c5ccccc5-c5ccccc54)NC(=O)OC(C)(C)C)N3[C@@H](C#N)[C@H](C2)N1C (some centres unmarked) | – | > 1 | > 1 | – | –
16 | C=CCOc1c(C)c2c(c3c1CC1[C@H]4c5c(cc(C)c(OC)c5O)C[C@@H]([C@H](C#N)N1[C@H]3CO)N4C)OCO2 (some centres unmarked) | 0.19 | 0.19 | 0.19 | 0.19 | –
17 | C=CCOc1c(C)c2c(c3c1CC1[C@H]4c5c(cc(C)c(OC)c5O)C[C@@H]([C@H](C#N)N1[C@H]3COC(CSCC1c3ccccc3-c3ccccc31)NC(=O)OC(C)(C)C)N4C)OCO2 (some centres unmarked) | – | 0.0055 | 0.0055 | – | –
18 | C=CCOc1c(C)c2c(c3c1CC1[C@H]4c5c(cc(C)c(OC)c5OCOCCOC)C[C@@H]([C@H](C#N)N1[C@H]3COC(CSCC1c3ccccc3-c3ccccc31)NC(=O)OC(C)(C)C)N4C)OCO2 (some centres unmarked) | – | > 1 | > 1 | – | –

Row | SMILES | IC50 [1] [µM] | IC50 [2] [µM] | IC50 [3] [µM] | IC50 [4] [µM] | IC50 (DU-145) [µM]
19 | COCCOCOc1c(OC)c(C)cc2c1[C@@H]1C3Cc4c(O)c(C)c5c(c4[C@H](COC(CSCC4c6ccccc6-c6ccccc64)NC(=O)OC(C)(C)C)N3[C@@H](C#N)[C@H](C2)N1C)OCO5 (some centres unmarked) | – | 0.01 | 0.01 | – | –
20 | COCCOCOc1c(OC)c(C)cc2c1[C@@H]1C3CC4(O)C(=O)C(C)=C5OCOC5=C4[C@H](COC(CSCC4c5ccccc5-c5ccccc54)NC(=O)OC(C)(C)C)N3[C@@H](C#N)[C@H](C2)N1C (some centres unmarked) | – | 0.051 | 0.051 | – | –
21 | COCCOCOc1c(OC)c(C)cc2c1[C@@H]1C3[C@@H]4SC[C@@H](NC(=O)OC(C)(C)C)C(=O)OC[C@@H](c5c6c(c(C)c(OC(C)=O)c54)OCO6)N3[C@@H](C#N)[C@H](C2)N1C (some centres unmarked) | – | 0.012 | – | – | –
22 | C=CCOc1c(C)c2c(c3c1CC1[C@H]4c5c(cc(C)c(OC)c5O)C[C@@H]([C@H](C#N)N1[C@H]3COC(CSCC1c3ccccc3-c3ccccc31)NC(=O)OCc1ccccc1)N4C)OCO2 (some centres unmarked) | – | 0.11 | 0.11 | – | –
23 | C=CCOc1c(C)c2c(c3c1CC1[C@H]4c5c(cc(C)c(OC)c5OCOCCOC)C[C@@H]([C@H](C#N)N1[C@H]3COC(CSCC1c3ccccc3-c3ccccc31)NC(=O)OCc1ccccc1)N4C)OCO2 (some centres unmarked) | – | > 1 | > 1 | – | –
24 | COCCOCOc1c(OC)c(C)cc2c1[C@@H]1C3CC4(O)C(=O)C(C)=C5OCOC5=C4[C@H](COC(CSCC4c5ccccc5-c5ccccc54)NC(=O)OCc4ccccc4)N3[C@@H](C#N)[C@H](C2)N1C (some centres unmarked) | – | > 1 | > 1 | – | –
25 | COCCOCOc1c(OC)c(C)cc2c1[C@@H]1C3[C@@H]4SC[C@H](NC(=O)OCc5ccccc5)C(=O)OC[C@@H](c5c6c(c(C)c(OC(C)=O)c54)OCO6)N3[C@@H](C#N)[C@H](C2)N1C (some centres unmarked) | – | 0.59 | 0.59 | – | –
26 | COc1c(C)cc2c(c1O)[C@@H]1C3[C@@H]4SC[C@H](NC(=O)OCc5ccccc5)C(=O)OC[C@@H](c5c6c(c(C)c(OC(C)=O)c54)OCO6)N3[C@@H](C#N)[C@H](C2)N1C (some centres unmarked) | – | 0.0013 | 0.0013 | – | –
27 | C=CCOC(=O)N[C@@H]1CS[C@@H]2c3c(OC(C)=O)c(C)c4c(c3[C@H](COC1=O)N1C2[C@H]2c3c(cc(C)c(OC)c3O)C[C@@H]([C@@H]1C#N)N2C)OCO4 (some centres unmarked) | – | 0.00015 | – | – | –
28 | C=CCOc1c(C)c2c(c3c1CC1[C@H]4c5c(cc(C)c(OC)c5O)C[C@@H]([C@H](C#N)N1[C@H]3CO[Si](C)(C)C(C)(C)C)N4C)OCO2 (some centres unmarked) | – | > 1 | > 1 | – | –
29 | C=CCOc1c(C)c2c(c3c1CC1[C@H]4c5c(cc(C)c(OC)c5OCOCCOC)C[C@@H]([C@H](C#N)N1[C@H]3CO[Si](C)(C)C(C)(C)C)N4C)OCO2 (some centres unmarked) | – | > 1 | > 1 | – | –
30 | COCCOCOc1c(OC)c(C)cc2c1[C@@H]1C3Cc4c(O)c(C)c5c(c4[C@H](CO[Si](C)(C)C(C)(C)C)N3[C@@H](C#N)[C@H](C2)N1C)OCO5 (some centres unmarked) | – | > 1 | > 1 | – | –
31 | COCCOCOc1c(OC)c(C)cc2c1[C@@H]1C3CC4(O)C(=O)C(C)=C5OCOC5=C4[C@H](CO[Si](C)(C)C(C)(C)C)N3[C@@H](C#N)[C@H](C2)N1C (some centres unmarked) | – | > 1 | > 1 | – | –
32 | COCCOCOc1c(OC)c(C)cc2c1[C@@H]1C3CC4(O)C(=O)C(C)=C5OCOC5=C4[C@H](CO)N3[C@@H](C#N)[C@H](C2)N1C (some centres unmarked) | – | > 1 | > 1 | – | –
33 | C=CCOC(=O)NC(CSCC1c2ccccc2-c2ccccc21)OC[C@H]1C2=C3OCOC3=C(C)C(=O)C2(O)CC2[C@H]3c4c(cc(C)c(OC)c4OCOCCOC)C[C@@H]([C@H](C#N)N21)N3C (some centres unmarked) | – | > 1 | > 1 | – | –
34 | C=CCOC(=O)N[C@@H]1CS[C@@H]2c3c(OC(C)=O)c(C)c4c(c3[C@H](COC1=O)N1C2[C@H]2c3c(cc(C)c(OC)c3OCOCCOC)C[C@@H]([C@@H]1C#N)N2C)OCO4 (some centres unmarked) | – | 0.012 | 0.012 | – | –
35 | COCCOc1c(OC)c(C)cc2c1[C@@H]1C3[C@@H]4SC[C@H](NC(=O)OCc5ccccc5)C(=O)OC[C@@H](c5c6c(c(C)c(OC(C)=O)c54)OCO6)N3[C@@H](C#N)[C@H](C2)N1C (some centres unmarked) | – | 0.062 | 0.062 | – | –
